Measured values from ChEMBL document CHEMBL4043239, “Discovery and optimization of oxadiazole-based FLAP inhibitors” (Bioorg Med Chem Lett, 2017).
Converted amounts (≈) assume the structure as drawn.

Columns and labels:
[1] = biological target: T1, Arachidonate 5-lipoxygenase-activating protein (Homo sapiens, UniProt P20292); experiment: Inhibition of FLAP in calcimycin-stimulated human whole blood assessed as reduction in LTB4 production pretreated for 15 mins followed by calcimycin addition after 30 mins by ELISA
T1 sequence (P20292 whole entry): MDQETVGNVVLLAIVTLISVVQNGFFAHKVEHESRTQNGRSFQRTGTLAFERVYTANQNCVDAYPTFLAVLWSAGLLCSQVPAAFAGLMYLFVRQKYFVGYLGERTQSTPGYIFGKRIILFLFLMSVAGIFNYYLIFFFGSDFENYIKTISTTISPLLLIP

[2] = Aqueous kinetic solubility of the compound at pH 7.4; assay type: physicochemical; conditions: for solubility kinetic: aqueous, read-out: Kinetic_solubility; for Kinetic_solubility: buffer
[3] = biological target: T1, Arachidonate 5-lipoxygenase-activating protein; experiment: Displacement of [125I]-L-691831 from human FLAP expressed in Sf9 cell membranes after 2 hrs by Topcount method
[4] = Aqueous equilibrium solubility in citric acid/disodium phosphate buffer at pH 6.8 at 1 uM after 24 hrs by HPLC method; assay type: physicochemical; conditions: for solubility: buffer, pH 6.8, 24 h, 1 µM; for solubility thermodynamic at 24 h, 1 µM: citric acid/disodium phosphate buffer, pH 6.8
[5] = Stability in human liver microsomes at 1 uM pretreated for 10 mins followed by NADPH addition after 60 mins by LC/MS analysis relative to hepatic blood flow; assay type: ADME, microsome; conditions: read-out: Stability
[6] = biological target: T2, Arachidonate 5-lipoxygenase-activating protein (Homo sapiens) (UniProt P20292); experiment: Ratio of IC50 for FLAP in calcimycin-stimulated human whole blood to IC50 for displacement of [125I]-L-691831 from human FLAP expressed in Sf9 cell membranes
T2 sequence (whole entry): T1 sequence (P20292 whole entry)

hERG (KCNH2) [7] = biological target: T3, hERG (KCNH2) (Homo sapiens, UniProt Q12809); experiment: Inhibition of human ERG expressed in CHO cells at 11 uM at -70mV holding potential measured after 300 secs by IonWorks electrophysiology method relative to control; assay type: cell-based; conditions: CHO cells expressing human ERG
hERG (KCNH2) [8] = biological target: T3, hERG (KCNH2); experiment: Inhibition of human ERG expressed in CHO cells at 14 uM at -70mV holding potential measured after 300 secs by IonWorks electrophysiology method relative to control; assay type: cell-based; conditions: CHO cells expressing human ERG
hERG (KCNH2) [9] = biological target: T3, hERG (KCNH2); experiment: Inhibition of human ERG expressed in CHO cells at 30 uM at -70mV holding potential measured after 300 secs by IonWorks electrophysiology method relative to control; assay type: cell-based; conditions: CHO cells expressing human ERG
[10] = Clearance in human hepatocytes at 1 uM measured after 1 hr by LC/MS analysis relative to hepatic blood flow; assay type: ADME, cell-based, Hepatocyte

T3 sequence (Q12809 whole entry): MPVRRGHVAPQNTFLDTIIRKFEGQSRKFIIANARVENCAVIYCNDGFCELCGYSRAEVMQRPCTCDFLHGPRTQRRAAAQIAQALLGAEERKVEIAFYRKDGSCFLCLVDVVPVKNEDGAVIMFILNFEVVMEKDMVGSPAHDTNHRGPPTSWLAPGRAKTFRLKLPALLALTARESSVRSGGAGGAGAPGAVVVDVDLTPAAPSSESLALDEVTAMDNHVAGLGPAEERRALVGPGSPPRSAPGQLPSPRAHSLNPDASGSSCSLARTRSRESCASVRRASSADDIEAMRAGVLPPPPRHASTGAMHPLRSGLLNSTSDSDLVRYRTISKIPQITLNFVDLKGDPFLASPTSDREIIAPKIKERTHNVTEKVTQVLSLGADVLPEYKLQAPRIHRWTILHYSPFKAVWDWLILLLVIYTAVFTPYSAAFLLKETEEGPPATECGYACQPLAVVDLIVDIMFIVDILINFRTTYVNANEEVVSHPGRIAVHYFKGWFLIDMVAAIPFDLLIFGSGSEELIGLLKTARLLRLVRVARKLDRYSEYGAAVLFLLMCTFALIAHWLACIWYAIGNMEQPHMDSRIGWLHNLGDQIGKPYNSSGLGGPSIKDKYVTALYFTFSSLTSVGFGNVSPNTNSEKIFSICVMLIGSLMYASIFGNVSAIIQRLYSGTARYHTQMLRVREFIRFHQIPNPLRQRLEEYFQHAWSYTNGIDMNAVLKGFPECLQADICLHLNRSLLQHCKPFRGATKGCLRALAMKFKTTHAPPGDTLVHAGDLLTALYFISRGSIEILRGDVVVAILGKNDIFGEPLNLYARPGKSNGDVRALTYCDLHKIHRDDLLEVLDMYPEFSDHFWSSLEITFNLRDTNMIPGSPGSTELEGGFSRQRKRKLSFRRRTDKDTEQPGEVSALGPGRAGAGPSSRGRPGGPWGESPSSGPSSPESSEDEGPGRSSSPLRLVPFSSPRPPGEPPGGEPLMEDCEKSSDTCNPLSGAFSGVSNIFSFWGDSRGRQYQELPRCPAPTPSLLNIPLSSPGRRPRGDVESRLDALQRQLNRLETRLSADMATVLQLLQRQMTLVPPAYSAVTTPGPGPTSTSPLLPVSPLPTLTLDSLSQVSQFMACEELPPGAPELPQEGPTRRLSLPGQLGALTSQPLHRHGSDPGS

Row | Compound | IC50 [1] | solubility kinetic [2] | IC50 [3] | hepatic extraction ratio at 1 h, 1 µM [5] | also measured
1 | CC(C)(C#N)n1cc(-c2nc(C3(c4ccc(-c5cnc(N)nc5)nc4)CCC3)no2)cn1 | 94 nM | 2 µg/mL (≈ 4.68 µM) | – | – | –
2 | CN(C)C(=O)Cn1cc(-c2nc([C@@](C)(c3ccc(-c4cnc(N)nc4)nc3)C3CC3)no2)cn1 | 48 nM | – | 2.9 nM | 0.67 | Kinetic_solubility [2]: Soluble; solubility [4]: Soluble
3 | CN(C)c1nc(C2(c3ccc(-c4cnc(N)nc4)nc3)CCC2)no1 | 2600 nM | – | – | – | –
4 | Nc1ncc(-c2ccc(C3(c4noc(N5CCNCC5)n4)CCC3)cc2)cn1 | 680 nM | > 37 µg/mL | 324 nM | 0.35 | Ratio IC50 [6]: 2
5 | Nc1ncc(-c2ccc(C3(c4noc(-c5cnn(C6COC6)c5)n4)CCC3)cc2)cn1 | – | > 41 µg/mL | – | – | inhibition at 5 min, 11 µM (hERG (KCNH2) [7]): 43%
6 | COCCn1cc(-c2nc(C3(c4ccc(-c5cnc(N)nc5)nc4)CCC3)no2)cn1 | 213 nM | > 41 µg/mL | – | – | –
7 | CC(C)(O)CN1CCN(c2nc([C@@](C)(c3ccc(-c4cnc(N)nc4)cc3)C3CC3)no2)CC1 | 99 nM | – | 53 nM | 0.36 | Kinetic_solubility [2]: Soluble; solubility [4]: Soluble; inhibition at 5 min, 14 µM (hERG (KCNH2) [8]): 26%
8 | CC(C)(O)Cn1cc(-c2nc(C3(c4ccc(-c5cnc(N)nc5)cc4)CCC3)no2)cn1 | – | > 43 µg/mL | – | – | –
9 | CC(C)[C@](C)(c1ccc(-c2cnc(N)nc2)nc1)c1noc(-c2cnn(CC(=O)N(C)C)c2)n1 | 197 nM | – | 54 nM | < 0.3 | Kinetic_solubility [2]: Soluble; solubility [4]: Soluble
10 | Nc1ncc(-c2ccc(C3(c4noc(N5CCCC5)n4)CCC3)cn2)cn1 | 917 nM | – | – | – | –
11 | CN(C)C(=O)N1CCN(c2nc([C@@](C)(c3ccc(-c4cnc(N)nc4)cc3)C3CC3)no2)CC1 | 58 nM | – | 12 nM | 0.52 | inhibition at 5 min, 30 µM (hERG (KCNH2) [9]): 36%; Kinetic_solubility [2]: Soluble; solubility [4]: Soluble
12 | Nc1ncc(-c2ccc(C3(c4noc(N5CCN(CC6CCCO6)CC5)n4)CCC3)cc2)cn1 (stereo not given) | 182 nM | 26 µg/mL (≈ 56.3 µM) | 92 nM | 0.49 | Ratio IC50 [6]: 2
13 | C[C@@](c1ccc(-c2cnc(N)nc2)nc1)(c1noc(-c2cnn(CC#N)c2)n1)C1CC1 | 19 nM | – | 8.1 nM | 0.57 | Kinetic_solubility [2]: Soluble; solubility [4]: Soluble
14 | CN(C(=O)Cn1cc(-c2nc(C3(c4ccc(-c5cnc(N)nc5)nc4)CCC3)no2)cn1)C(C)(C)C | 262 nM | 27 µg/mL (≈ 55.4 µM) | – | – | –
15 | Nc1ncc(-c2ccc(C3(c4noc(N)n4)CCC3)cc2)cn1 | – | 22 µg/mL (≈ 71.3 µM) | – | – | –
16 | Nc1ncc(-c2ccc(C3(c4noc(N5CC[C@H](O)C5)n4)CCC3)cc2)cn1 | 202 nM | > 37 µg/mL | – | < 0.24 | Ratio IC50 [6]: 6
17 | N#CCCn1cc(-c2nc(C3(c4ccc(-c5cnc(N)nc5)nc4)CCC3)no2)cn1 | 85 nM | > 40 µg/mL | 11 nM | – | solubility thermodynamic at 24 h, 1 µM [4]: 9 µg/mL (≈ 21.8 µM)
18 | C[C@@](c1ccc(-c2cnc(N)nc2)nc1)(c1noc(-c2cnn(C3COC3)c2)n1)C1CC1 | 12 nM | – | 1.5 nM | 0.45 | Kinetic_solubility [2]: Soluble; solubility [4]: Soluble
19 | CC(C)(CO)n1cc(-c2nc(C3(c4ccc(-c5cnc(N)nc5)nc4)CCC3)no2)cn1 | 403 nM | > 43 µg/mL | – | – | –
20 | CN(C)c1nc(C2(c3ccc(-c4cnc(N)nc4)cc3)CCC2)no1 | – | 1.9 µg/mL (≈ 5.65 µM) | – | – | –
21 | Nc1ncc(-c2ccc(C3(c4noc(-c5cnn(C6COC6)c5)n4)CCC3)cn2)cn1 | 71 nM | 25 µg/mL (≈ 60 µM) | – | < 0.24 | inhibition at 5 min, 11 µM (hERG (KCNH2) [7]): < 10%

Row | Compound | IC50 [1] | solubility kinetic [2] | IC50 [3] | hepatic extraction ratio at 1 h, 1 µM [5] | also measured
22 | CC(C)(C)NC(=O)Cn1cc(-c2nc(C3(c4ccc(-c5cnc(N)nc5)cc4)CCC3)no2)cn1 | – | 22 µg/mL (≈ 46.6 µM) | – | – | –
23 | CC(C)(C)NC(=O)Cn1cc(-c2nc(C3(c4ccc(-c5cnc(N)nc5)nc4)CCC3)no2)cn1 | 195 nM | 26 µg/mL (≈ 54.9 µM) | – | – | –
24 | Nc1ncc(-c2ccc(C3(c4noc(N5CCCC5)n4)CCC3)cc2)cn1 | 467 nM | 16 µg/mL (≈ 44.1 µM) | – | – | Ratio IC50 [6]: 56
25 | CN(C(=O)Cn1cc(-c2nc(C3(c4ccc(-c5cnc(N)nc5)cc4)CCC3)no2)cn1)C(C)(C)C | – | 2 µg/mL (≈ 4.11 µM) | – | – | –
26 | Cn1cc(-c2nc(C3(c4ccc(-c5cnc(N)nc5)cc4)CCC3)no2)cn1 | – | 14 µg/mL (≈ 37.5 µM) | – | – | inhibition at 5 min, 11 µM (hERG (KCNH2) [7]): 25%
27 | Cn1cc(-c2nc(C3(c4ccc(-c5cnc(N)nc5)nc4)CCC3)no2)cn1 | 270 nM | 24 µg/mL (≈ 64.1 µM) | – | 0.19 | inhibition at 5 min, 11 µM (hERG (KCNH2) [7]): 11%
28 | Cn1cc(-c2nc(C3(c4ccc(-c5cnc(N)nc5)cn4)CCC3)no2)cn1 | 787 nM | > 37 µg/mL | – | – | –
29 | CC(C)OC1CCN(c2nc(C3(c4ccc(-c5cnc(N)nc5)cc4)CCC3)no2)CC1 | 174 nM | 16 µg/mL (≈ 36.8 µM) | 48 nM | 0.37 | inhibition at 5 min, 14 µM (hERG (KCNH2) [8]): 85%
30 | COCCn1cc(-c2nc(C3(c4ccc(-c5cnc(N)nc5)cc4)CCC3)no2)cn1 | – | > 41 µg/mL | – | – | –
31 | CC(C)[C@](C)(c1ccc(-c2cnc(N)nc2)nc1)c1noc(-c2cnn(C)c2)n1 | 33 nM | – | 16 nM | < 0.3 | Kinetic_solubility [2]: Soluble; solubility thermodynamic at 24 h, 1 µM [4]: 4 µg/mL (≈ 10.2 µM)
32 | CC(C)(CO)n1cc(-c2nc(C3(c4ccc(-c5cnc(N)nc5)cc4)CCC3)no2)cn1 | 155 nM | > 43 µg/mL | – | – | –
33 | Cc1cc(-c2nc(C3(c4ccc(-c5cnc(N)nc5)cc4)CCC3)no2)[nH]n1 | 80 nM | 3 µg/mL (≈ 8.03 µM) | – | – | –
34 | CCn1cc(-c2nc(C3(c4ccc(-c5cnc(N)nc5)nc4)CCC3)no2)cn1 | 192 nM | > 38 µg/mL | – | – | –
35 | Cc1cc(-c2nc(C3(c4ccc(-c5cnc(N)nc5)cn4)CCC3)no2)[nH]n1 | 342 nM | > 37 µg/mL | – | – | –
36 | CC(C)(O)Cn1cc(-c2nc(C3(c4ccc(-c5cnc(N)nc5)nc4)CCC3)no2)cn1 | 124 nM | > 43 µg/mL | – | < 0.24 | hepatic extraction ratio at 1 h, 1 µM [10]: 0.5; inhibition at 5 min, 11 µM (hERG (KCNH2) [7]): < 10%; solubility thermodynamic at 24 h, 1 µM [4]: 45 µg/mL (≈ 104 µM)
37 | CC1(O)CN(c2nc([C@@](C)(c3ccc(-c4cnc(N)nc4)cc3)C3CC3)no2)C1 | 72 nM | – | 16 nM | < 0.24 | Kinetic_solubility [2]: Soluble; inhibition at 5 min, 11 µM (hERG (KCNH2) [7]): 13%; solubility [4]: Soluble
38 | CC1(O)CCN(c2nc([C@@](C)(c3ccc(-c4cnc(N)nc4)nc3)C3CC3)no2)CC1 | 115 nM | – | 97 nM | – | inhibition at 5 min, 30 µM (hERG (KCNH2) [9]): 17%
39 | Cc1cc(-c2nc(C3(c4ccc(-c5cnc(N)nc5)nc4)CCC3)no2)[nH]n1 | 164 nM | > 37 µg/mL | – | – | –
40 | N#CCCn1cc(-c2nc(C3(c4ccc(-c5cnc(N)nc5)cc4)CCC3)no2)cn1 | 37 nM | 17 µg/mL (≈ 41.2 µM) | 1 nM | – | –
41 | Nc1ncc(-c2ccc(C3(c4noc(N5CCC(O)CC5)n4)CCC3)cn2)cn1 | 595 nM | – | – | – | inhibition at 5 min, 30 µM (hERG (KCNH2) [9]): 51%
